Laboratory results: patent publication US10759814B2, “Pharmaceutical compositions containing substituted polycyclic pyridone derivatives and prodrug thereof” (priority 2016, dated 2020)
“And” between values parts separate entries of the source, which are not always exact repeats. Equal entries are not always repeated. Where two headings read alike, the source gives them in different places.

Columns and labels:
[1] = assay type: in vivo, human; details: Compound II-6 single 40 or 80 mg; Oseltamivir 75 mg twice a day for 5 days
Excerpt: (4) Incidence of side effects
(4) Incidence of Side Effects
The number of side-effect episodes and the number of patients with side effect were counted for each administration group.

[2] = assay type: in vivo; details: after oral administration of Compound II-6 to rat under non-fasting conditions
Excerpt: FIG. 1 is a result of measuring the plasma concentration of Compound III-2, after oral administration of prodrug Compound II-6, the parent compound of which is Compound III-2, to rat under non-fasting conditions.
FIG. 2 is a result of measuring the plasma concentration of Compound II-6, after oral administration of prodrug Compound II-6, the parent compound of which is Compound III-2, to rat under non-fasting conditions.
Test Example 13: Transition of Plasma Concentration
The plasma concentration of Compound III-2 and Compound II-6 after oral administration of prodrug Compound II-6, the parent compound of which was Compound III-2, to rat under non-fasting conditions was measured.

influenza virus [3] = test: Clinical test (Test Example 15): time to alleviation of influenza symptoms; details: for Time to alleviation of influenza symptoms, difference from placebo / Time to alleviation of influenza symptoms, hazard ratio (Cox proportional hazard model relative to placebo) / Time to alleviation of influenza symptoms, median value: ITTI; for Time to alleviation of influenza symptoms, median value: influenza patients 20 to <65 years old; for Time until cough symptom is alleviated, median value / Time until fatigue symptom is alleviated, median value / Time until feverishness or chills symptom is alleviated, median value / Time until headache symptom is alleviated, median value / Time until muscular or joint pain symptom is alleviated, median value / Time until nasal congestion symptom is alleviated, median value / Time until sore throat symptom is alleviated, median value: patients with symptom moderate or severe at baseline
Excerpt: Test Example 15: Clinical Test
As for the primary endpoint, subjects made evaluations by themselves on a 4-point scale [0: none, 1: mild, 2: moderate, 3: severe] concerning the time to alleviation of influenza symptoms (the time from the beginning of administration of the investigational drug until 7 influenza symptoms (“cough”, “sore throat”, “headache”, “nasal congestion”, “feverishness or chills”, “muscular or joint pain”, and “fatigue”) were alleviated) to evaluate the efficacy of the investigational drug over the placebo.
Patients who satisfied all of the following criteria were selected as subjects.
(a) Male or female patients at 20 years old or older and younger than 65 years old
(b) Patients satisfying all of the following criteria and diagnosed with influenza virus infectious disease
The main efficacy endpoint is the time to alleviation of influenza symptoms (the time to alleviation of influenza symptoms).
It is the time from the beginning of administration until alleviation of influenza symptoms. Alleviation of influenza symptoms refers to when all 7 influenza symptoms (cough, sore throat, headache, nasal congestion, feverishness or chills, muscular or joint pain, fatigue) become “0: none” or “1: mild” in the patient diary that the subject keeps, and this condition continues at least 21.5 hours (24 hours—10%).
Secondary Efficacy Endpoint
The secondary efficacy endpoint is as follows.
(1) Time to Alleviation of Each Influenza Symptom
It is the time from the beginning of administration until alleviation of each influenza symptom. Alleviation of a symptom refers to when the target item becomes “0: none” or “1: mild”, and this condition continues at least 21.5 hours (24 hours—10%).
Analysis of Primary Endpoint
As for the time to alleviation of influenza symptoms, which is the primary endpoint, the primary analysis and the secondary analysis are described. In addition to the ITTI group, the primary analysis was also performed on the PPS group for sensitivity analysis. Other analyses were performed only on the ITTI group.
The hazard ratio, 95% confidence interval, and P value of each administered group relative to the placebo group were calculated by a Cox proportional hazard model using the time to alleviation of influenza symptoms as a response, the administered groups as fixed effects, and the current smoking habit and the total score of 7 influenza symptoms at baseline before administration, which are allocation factors, as covariates. In order to prevent an increase of the probability of type I error due to performing the test multiple times, the P value was adjuste d by the Hommel's method.
The placebo group and each investigational drug administered group were compared by stratified generalized Wilcoxon test using the time to alleviation of influenza symptoms as a response, the administered groups as explanatory variables, and the category (11 points or less, 12 points or more) of the total score of 7 influenza symptoms before administration and the smoking habit, which are allocation factors, as stratification factors.
Also, a Kaplan-Meier survival curve was drawn for each group to calculate the median time to alleviation of influenza symptoms and the 95% confidence interval thereof. The Greenwood's method was used for calculating the confidence interval.
Analysis of Secondary Endpoint
(1) Time Until Each Alleviation of Influenza Symptom
The same analysis as in the primary endpoint was performed, with the time until each alleviation of influenza symptom being regarded as a response. At this time, cases where the symptom before administration was “0: none” or “1: mild” were excluded from the analysis target.

influenza virus [4] = assay type: in vivo, human
[5] = Day 2 (24 hours later), 12 to <65 years old
[6] = Day 2 (24 hours later), 20 to <65 years old
[7] = Day 3 (48 hours later), 12 to <65 years old
[8] = Day 3 (48 hours later), 20 to <65 years old
[9] = Day 4 (72 hours later), 12 to <65 years old
[10] = Day 4 (72 hours later), 20 to <65 years old
[11] = Day 5 (96 hours later), 12 to <65 years old
[12] = Day 5 (96 hours later), 20 to <65 years old
[13] = Day 6 (120 hours later), 12 to <65 years old
[14] = Day 6 (120 hours later), 20 to <65 years old
[15] = Day 9 (192 hours later), 12 to <65 years old
[16] = Day 9 (192 hours later), 20 to <65 years old

COC(=O)OCOc1c2n(ccc1=O)N([C@@H]1c3ccccc3SCc3c1ccc(F)c3F)[C@@H]1COCCN1C2=O [II-6]
Incidence of adverse events the causal relationship of which cannot be denied (patients) [1]: 4.4% | plasma concentration of Compound II-6 [2]: a determination limit or less | Time until cough symptom is alleviated, difference from placebo (influenza virus [3]; single oral 10 mg): -0.1 h | Time until cough symptom is alleviated, hazard ratio (Cox model relative to placebo) (influenza virus [3]; single oral 10 mg): 0.941 | Time until fatigue symptom is alleviated, difference from placebo (influenza virus [3]; single oral 10 mg): -10.7 h | Time until fatigue symptom is alleviated, hazard ratio (Cox model relative to placebo) (influenza virus [3]; single oral 10 mg): 0.783 | Time until feverishness or chills symptom is alleviated, difference from placebo (influenza virus [3]; single oral 10 mg): -4.1 h | Time until feverishness or chills symptom is alleviated, hazard ratio (Cox model relative to placebo) (influenza virus [3]; single oral 10 mg): 0.635 | Time until headache symptom is alleviated, difference from placebo (influenza virus [3]; single oral 10 mg): -1.5 h | Time until headache symptom is alleviated, hazard ratio (Cox model relative to placebo) (influenza virus [3]; single oral 10 mg): 0.803 | Time until muscular or joint pain symptom is alleviated, difference from placebo (influenza virus [3]; single oral 10 mg): -10.7 h | Time until muscular or joint pain symptom is alleviated, hazard ratio (Cox model relative to placebo) (influenza virus [3]; single oral 10 mg): 0.77 | Time until nasal congestion symptom is alleviated, difference from placebo (influenza virus [3]; single oral 10 mg): -17.6 h | Time until nasal congestion symptom is alleviated, hazard ratio (Cox model relative to placebo) (influenza virus [3]; single oral 10 mg): 0.742 | Time until sore throat symptom is alleviated, difference from placebo (influenza virus [3]; single oral 10 mg): 9.1 h | Time until sore throat symptom is alleviated, hazard ratio (Cox model relative to placebo) (influenza virus [3]; single oral 10 mg): 1.312 | Time to alleviation of influenza symptoms, difference from placebo (influenza virus [3]; single oral 10 mg): -23.4 h | Time to alleviation of influenza symptoms, hazard ratio (Cox proportional hazard model relative to placebo) (influenza virus [3]; single oral 10 mg): 0.758 | Time to alleviation of influenza symptoms, median value (influenza virus [3]; single oral 10 mg): 54.2 h | Time until cough symptom is alleviated, median value (influenza virus [3]; single oral 10 mg): 31.1 h | Time until fatigue symptom is alleviated, median value (influenza virus [3]; single oral 10 mg): 32 h | Time until feverishness or chills symptom is alleviated, median value (influenza virus [3]; single oral 10 mg): 24.7 h | Time until headache symptom is alleviated, median value (influenza virus [3]; single oral 10 mg): 42.2 h | Time until muscular or joint pain symptom is alleviated, median value (influenza virus [3]; single oral 10 mg): 31.2 h | Time until nasal congestion symptom is alleviated, median value (influenza virus [3]; single oral 10 mg): 25.2 h | Time until sore throat symptom is alleviated, median value (influenza virus [3]; single oral 10 mg): 35.3 h | Time until cough symptom is alleviated, difference from placebo (influenza virus [3]; single oral 20 mg): -1.4 h | Time until cough symptom is alleviated, hazard ratio (Cox model relative to placebo) (influenza virus [3]; single oral 20 mg): 0.883 | Time until fatigue symptom is alleviated, difference from placebo (influenza virus [3]; single oral 20 mg): -11.5 h | Time until fatigue symptom is alleviated, hazard ratio (Cox model relative to placebo) (influenza virus [3]; single oral 20 mg): 0.876 | Time until feverishness or chills symptom is alleviated, difference from placebo (influenza virus [3]; single oral 20 mg): 0.6 h | Time until feverishness or chills symptom is alleviated, hazard ratio (Cox model relative to placebo) (influenza virus [3]; single oral 20 mg): 0.848 | Time until headache symptom is alleviated, difference from placebo (influenza virus [3]; single oral 20 mg): -6.7 h | Time until headache symptom is alleviated, hazard ratio (Cox model relative to placebo) (influenza virus [3]; single oral 20 mg): 0.936 | Time until muscular or joint pain symptom is alleviated, difference from placebo (influenza virus [3]; single oral 20 mg): -12 h | Time until muscular or joint pain symptom is alleviated, hazard ratio (Cox model relative to placebo) (influenza virus [3]; single oral 20 mg): 0.687 | Time until nasal congestion symptom is alleviated, difference from placebo (influenza virus [3]; single oral 20 mg): -21.3 h | Time until nasal congestion symptom is alleviated, hazard ratio (Cox model relative to placebo) (influenza virus [3]; single oral 20 mg): 0.59 | Time until sore throat symptom is alleviated, difference from placebo (influenza virus [3]; single oral 20 mg): 1.5 h | Time until sore throat symptom is alleviated, hazard ratio (Cox model relative to placebo) (influenza virus [3]; single oral 20 mg): 1.05 | Time to alleviation of influenza symptoms, difference from placebo (influenza virus [3]; single oral 20 mg): -26.6 h | Time to alleviation of influenza symptoms, hazard ratio (Cox proportional hazard model relative to placebo) (influenza virus [3]; single oral 20 mg): 0.81 | Time to alleviation of influenza symptoms, median value (influenza virus [3]; single oral 20 mg): 51.0 h and 51 h | Time until cough symptom is alleviated, median value (influenza virus [3]; single oral 20 mg): 29.8 h | Time until fatigue symptom is alleviated, median value (influenza virus [3]; single oral 20 mg): 31.3 h | Time until feverishness or chills symptom is alleviated, median value (influenza virus [3]; single oral 20 mg): 29.4 h | Time until headache symptom is alleviated, median value (influenza virus [3]; single oral 20 mg): 37 h | Time until muscular or joint pain symptom is alleviated, median value (influenza virus [3]; single oral 20 mg): 29.9 h | Time until nasal congestion symptom is alleviated, median value (influenza virus [3]; single oral 20 mg): 21.6 h | Time until sore throat symptom is alleviated, median value (influenza virus [3]; single oral 20 mg): 27.8 h | Time until cough symptom is alleviated, difference from placebo (influenza virus [3]; single oral 40 mg): -6.6 h | Time until cough symptom is alleviated, hazard ratio (Cox model relative to placebo) (influenza virus [3]; single oral 40 mg): 0.865 | Time until fatigue symptom is alleviated, difference from placebo (influenza virus [3]; single oral 40 mg): -11.7 h | Time until fatigue symptom is alleviated, hazard ratio (Cox model relative to placebo) (influenza virus [3]; single oral 40 mg): 0.724 | Time until feverishness or chills symptom is alleviated, difference from placebo (influenza virus [3]; single oral 40 mg): -5.8 h | Time until feverishness or chills symptom is alleviated, hazard ratio (Cox model relative to placebo) (influenza virus [3]; single oral 40 mg): 0.71 | Time until headache symptom is alleviated, difference from placebo (influenza virus [3]; single oral 40 mg): -5.8 h | Time until headache symptom is alleviated, hazard ratio (Cox model relative to placebo) (influenza virus [3]; single oral 40 mg): 0.655 | Time until muscular or joint pain symptom is alleviated, hazard ratio (Cox model relative to placebo) (influenza virus [3]; single oral 40 mg): 0.657 | Time until nasal congestion symptom is alleviated, hazard ratio (Cox model relative to placebo) (influenza virus [3]; single oral 40 mg): 0.564 | Time until sore throat symptom is alleviated, difference from placebo (influenza virus [3]; single oral 40 mg): 5.6 h | Time until sore throat symptom is alleviated, hazard ratio (Cox model relative to placebo) (influenza virus [3]; single oral 40 mg): 1.092 | Time to alleviation of influenza symptoms, difference from placebo (influenza virus [3]; single oral 40 mg): -28.2 h | Time to alleviation of influenza symptoms, hazard ratio (Cox proportional hazard model relative to placebo) (influenza virus [3]; single oral 40 mg): 0.817 | Time to alleviation of influenza symptoms, median value (influenza virus [3]; single oral 40 mg): 49.5 h | Time until cough symptom is alleviated, median value (influenza virus [3]; single oral 40 mg): 24.6 h | Time until fatigue symptom is alleviated, median value (influenza virus [3]; single oral 40 mg): 31.1 h | Time until feverishness or chills symptom is alleviated, median value (influenza virus [3]; single oral 40 mg): 23 h | Time until headache symptom is alleviated, median value (influenza virus [3]; single oral 40 mg): 37.9 h | Time until muscular or joint pain symptom is alleviated, median value (influenza virus [3]; single oral 40 mg): 25.4 h | Time until nasal congestion symptom is alleviated, median value (influenza virus [3]; single oral 40 mg): 21.9 h | Time until sore throat symptom is alleviated, median value (influenza virus [3]; single oral 40 mg): 31.9 h | Time (median) to termination of viral shedding based on virus titer (influenza virus [4]; 12 to <65 years old): 24.0 h | Time to termination of viral shedding, difference between groups vs placebo (influenza virus [4]; 12 to <65 years old): -72.0 h | Time to termination of viral shedding, difference between groups vs Oseltamivir (influenza virus [4]; 20 to <65 years old): -48.0 h | Amount of change in virus titer from baseline, mean (influenza virus [4]; [5]): −4.44 log10 [TCID50/mL] | Proportion of patients having a positive influenza virus titer (influenza virus [4]; [5]): 47.8% | Amount of change in virus titer from baseline, mean (influenza virus [4]; [6]): −4.39 log10 [TCID50/mL] | Proportion of patients having a positive influenza virus titer (influenza virus [4]; [6]): 47.6% | Amount of change in virus titer from baseline, mean (influenza virus [4]; [7]): −4.82 log10 [TCID50/mL] | Proportion of patients having a positive influenza virus titer (influenza virus [4]; [7]): 21.5% | Amount of change in virus titer from baseline, mean (influenza virus [4]; [8]): −4.78 log10 [TCID50/mL] | Proportion of patients having a positive influenza virus titer (influenza virus [4]; [8]): 19.8% | Amount of change in virus titer from baseline, mean (influenza virus [4]; [9]): −4.50 log10 [TCID50/mL] | Proportion of patients having a positive influenza virus titer (influenza virus [4]; [9]): 16.7% | Amount of change in virus titer from baseline, mean (influenza virus [4]; [10]): −4.46 log10 [TCID50/mL] | Proportion of patients having a positive influenza virus titer (influenza virus [4]; [10]): 16.1% | Amount of change in virus titer from baseline, mean (influenza virus [4]; [11]): −4.95 log10 [TCID50/mL] | Proportion of patients having a positive influenza virus titer (influenza virus [4]; [11]): 13.6% | Amount of change in virus titer from baseline, mean (influenza virus [4]; [12]): −4.95 log10 [TCID50/mL] | Proportion of patients having a positive influenza virus titer (influenza virus [4]; [12]): 13.0% | Amount of change in virus titer from baseline, mean (influenza virus [4]; [13]): −4.58 log10 [TCID50/mL] | Proportion of patients having a positive influenza virus titer (influenza virus [4]; [13]): 8.2% | Amount of change in virus titer from baseline, mean (influenza virus [4]; [14]): −4.56 log10 [TCID50/mL] | Proportion of patients having a positive influenza virus titer (influenza virus [4]; [14]): 5.6% | Amount of change in virus titer from baseline, mean (influenza virus [4]; [15]): −5.06 log10 [TCID50/mL] | Proportion of patients having a positive influenza virus titer (influenza virus [4]; [15]): 2.9% | Amount of change in virus titer from baseline, mean (influenza virus [4]; [16]): −5.03 log10 [TCID50/mL] | Proportion of patients having a positive influenza virus titer (influenza virus [4]; [16]): 3.0%
